The values that follow come from ChEMBL document CHEMBL3244031, “Synthesis of octanoyl[8-leucyl]angiotensin II, a lipophilic angiotensin antagonist” (J Med Chem, 1977).

As usually defined, the pA2 is a measure of antagonist potency on a negative log scale.

Data set [1] relates to Rattus norvegicus. As to the kind of experiment: Antihypertensive activity in iv dosed rat assessed as dose required to inhibit angiotensin-2-induced increase in blood pressure. The data set is classed as functional.
Data set [2] concerns the target T1, Angiotensin II receptor (Rattus norvegicus) (UniProt P29089+P25095+P35351). The data set can be described thus: Antagonist activity at angiotensin 2 receptor in rat uterus assessed as time required for recovery of organ's response at 2 X 10^-7 M administered 3 mins prior to angiotensin-2 challenge followed by compound washout at 2 mins post challenge. The data set is classed as tissue-based.

The target of data set [3] is T1, Angiotensin II receptor (Rattus norvegicus). As to the kind of experiment: Antagonist activity at angiotensin 2 receptor in rat uterus assessed as concentration required to reduce maximum response induced by agonist by one-half after 15 mins. The data set is classed as tissue-based.
A short description of data set [4]: Partition coefficient, log K of the compound in n-BuOH-HOAc-H2O. Type of data set: physicochemical.
Data set [5] in a line: Antagonist activity at angiotensin 2 receptor in guinea pig ileum assessed as inhibition of angiotensin-2-induced effect after 15 mins. Type of data set: tissue-based. Particulars: Cavia porcellus, 0.25 h, read-out: pA2 (converted).
For data set [6], the system named is Rattus norvegicus. The data set can be described thus: Increase in blood pressure in iv dosed rat relative to angiotensin-2. The data set is classed as functional.
The species named for data set [7] is Cavia porcellus. The data set can be described thus: Antagonist activity at angiotensin 2 receptor in guinea pig ileum assessed as concentration required to reduction of angiotensin-2-induced maximum response by one-half after 15 mins. The data set is classed as tissue-based.
The target in data set [8] is T1, Angiotensin II receptor (Rattus norvegicus). As to the kind of experiment: Agonist activity at angiotensin 2 receptor in rat uterus relative to angiotensin-2. The data set is classed as tissue-based.
The species named for data set [9] is Cavia porcellus. The data set can be described thus: Agonist activity at angiotensin 2 receptor in guinea pig ileum relative to angiotensin-2. The data set is classed as tissue-based.
For data set [10], the system named is Cavia porcellus. The data set can be described thus: Antagonist activity at angiotensin 2 receptor in guinea pig ileum assessed as time required for recovery of organ's response at 2 X 10^-7 M administered 3 mins prior to angiotensin-2 challenge followed by compound washout at 2 mins post challenge. The data set is classed as tissue-based.
The next data set concerns the target T2, Angiotensin II receptor (Rattus norvegicus, UniProt P29089+P25095+P35351).
T2 sequence (P29089 whole entry): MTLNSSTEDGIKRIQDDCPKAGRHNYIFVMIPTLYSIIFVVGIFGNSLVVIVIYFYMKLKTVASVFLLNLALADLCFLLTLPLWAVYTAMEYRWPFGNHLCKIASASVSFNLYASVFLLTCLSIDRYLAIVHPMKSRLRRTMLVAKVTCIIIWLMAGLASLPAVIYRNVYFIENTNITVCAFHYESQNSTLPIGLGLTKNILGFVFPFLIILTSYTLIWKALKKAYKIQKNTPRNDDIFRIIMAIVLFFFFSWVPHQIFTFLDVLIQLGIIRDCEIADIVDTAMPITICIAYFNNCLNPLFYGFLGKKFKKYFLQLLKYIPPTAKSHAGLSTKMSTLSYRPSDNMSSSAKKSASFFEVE
T2 sequence (P25095 whole entry): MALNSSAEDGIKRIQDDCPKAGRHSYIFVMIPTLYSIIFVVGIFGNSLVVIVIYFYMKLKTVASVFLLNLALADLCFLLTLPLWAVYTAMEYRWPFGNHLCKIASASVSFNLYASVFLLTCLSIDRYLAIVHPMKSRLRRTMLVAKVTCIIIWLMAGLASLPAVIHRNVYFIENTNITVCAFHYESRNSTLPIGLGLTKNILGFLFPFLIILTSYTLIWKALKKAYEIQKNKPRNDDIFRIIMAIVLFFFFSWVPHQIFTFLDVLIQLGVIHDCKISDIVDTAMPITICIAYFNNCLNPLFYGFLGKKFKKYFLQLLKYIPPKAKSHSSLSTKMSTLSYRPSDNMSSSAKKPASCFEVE
T2 sequence (P35351 whole entry): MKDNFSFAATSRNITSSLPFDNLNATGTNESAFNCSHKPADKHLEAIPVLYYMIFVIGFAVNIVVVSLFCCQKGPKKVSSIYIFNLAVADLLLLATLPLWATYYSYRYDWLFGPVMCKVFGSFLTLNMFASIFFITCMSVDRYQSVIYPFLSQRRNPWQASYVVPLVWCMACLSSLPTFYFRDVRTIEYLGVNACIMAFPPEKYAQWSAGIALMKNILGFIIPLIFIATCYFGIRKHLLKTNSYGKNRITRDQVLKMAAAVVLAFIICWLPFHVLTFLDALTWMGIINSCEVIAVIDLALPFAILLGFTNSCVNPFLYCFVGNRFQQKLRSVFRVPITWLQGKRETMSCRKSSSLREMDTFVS
As to the kind of experiment: Antagonist activity at angiotensin 2 receptor in rat uterus assessed as inhibition of angiotensin-2-induced effect after 15 mins. The data set is classed as tissue-based.

Data set [11] has as its system Rattus norvegicus. As to the kind of experiment: Antihypertensive activity in iv dosed rat assessed as time required for recovery of angiotensin-2-induced increase in blood pressure. Type of data set: functional, organism-based.
Data set [12] concerns the target T1, Angiotensin II receptor (Rattus norvegicus). The data set can be described thus: Antagonist activity at angiotensin 2 receptor in rat uterus assessed as time required for recovery of organ's response at 2 X 10^-8 M administered 3 mins prior to angiotensin-2 challenge followed by compound washout at 5 mins post challenge. Type of data set: tissue-based.
In data set [13] the test system is Cavia porcellus. As to the kind of experiment: Antagonist activity at angiotensin 2 receptor in guinea pig ileum assessed as time required for recovery of organ's response at 2 X 10^-8 M administered 3 mins prior to angiotensin-2 challenge followed by compound washout at 2 mins post challenge. The data set is classed as tissue-based.

Where a SMILES comes first, the peptide text is derived from it. The star is where a group is joined. Octanoyl = CCCCCCCC(=O)*

Consider `CCCCCCCC(=O)N[C@@H](CC(=O)O)C(=O)N[C@@H](CCCNC(=N)N)C(=O)N[C@H](C(=O)N[C@@H](Cc1ccc(O)cc1)C(=O)N[C@H](C(=O)N[C@@H](Cc1cnc[nH]1)C(=O)N1CCC[C@H]1C(=O)N[C@@H](CC(C)C)C(=O)O)[C@@H](C)CC)C(C)C` (Octanoyl-DRVYIHPL-OH), for which the Activity in the data set with Rattus norvegicus [1] worked out at 2.3 ug/min.kg; in the data set on Rattus norvegicus [6] it was 0.1%; in [8], 0.21%; in the data set listed under Cavia porcellus [9], 0.15%. For the same compound, the T1/2 was found to be 6.6 min in data set [2], 1.7 min with Cavia porcellus [10] and 12 min with Rattus norvegicus [11]. The values for the pAh (in [3]; in the data set filed under Cavia porcellus [7]) were 6 and 6.2, respectively. The K in data set [4] was determined as 7. The Kb in data set [5] was 22.9 nM. Besides, the pA2 at Angiotensin II receptor worked out at 8.42.
For H-DRVYIHPL-OH, the Activity in the data set with Rattus norvegicus [1] worked out at 10.2 ug/min.kg; with Rattus norvegicus [6], 0.09%; in data set [8], 0.025%; in the data set listed under Cavia porcellus [9], 0.016%. Moreover, the pAh in [3] was 6.2; in the data set filed under Cavia porcellus [7], 7.3. Moreover, the K in data set [4] stood at 0.18. The Kb in [5] is 1.2 nM. Further, the pA2 on Angiotensin II receptor amounted to 8.33. Moreover, the figures for the T1/2 (in data set [12]; with Cavia porcellus [13]; in the data set on Rattus norvegicus [11]) were 28.1 min, 3.8 min and 12 min, respectively.
